Results from ChEMBL document CHEMBL4732067, “Synthesis and evaluation of new compounds bearing 3-(4-aminopiperidin-1-yl)methyl magnolol scaffold as anticancer agents for the treatment of non-small cell lung cancer via targeting autophagy” (Eur J Med Chem, 2021).
pIC50: −log10 of the molar value.

How the values were obtained:
HCC827 = experiment: Antiproliferative activity against human HCC827 cells assessed as reduction in cell viability after 72 hrs by MTT assay; assay type: functional, cell-based; settings: HCC827, 72 h
NCI-H1975 = experiment: Antiproliferative activity against human NCI-H1975 cells assessed as reduction in cell viability after 72 hrs by MTT assay; assay type: functional, cell-based; settings: NCI-H1975, 72 h
NCI-H460 = experiment: Antiproliferative activity against human NCI-H460 cells assessed as reduction in cell viability after 72 hrs by MTT assay; assay type: functional, cell-based; settings: NCI-H460, 72 h
A549 = experiment: Antiproliferative activity against human A549 cells expressing wild type EGFR assessed as reduction in cell viability after 72 hrs by MTT assay; assay type: functional, cell-based; settings: A549, 72 h
[1] = Antiproliferative activity against human SPCA1 cells expressing wild type EGFR assessed as reduction in cell viability after 72 hrs by MTT assay; assay type: functional, cell-based; settings: SPCA1, 72 h
NCI-H1650 = experiment: Antiproliferative activity against human NCI-H1650 cells expressing EGFR mutant assessed as reduction in cell viability after 72 hrs by MTT assay; assay type: functional, cell-based; settings: NCI-H1650, 72 h
NCI-H441 = experiment: Antiproliferative activity against human NCI-H441 cells […] assessed as reduction in cell viability after 72 hrs by MTT assay; assay type: functional, cell-based; settings: NCI-H441, 72 h
[2] = Metabolic stability in human liver microsomes assessed as half life; assay type: ADME, Microsome
[3] = Metabolic stability in human liver microsomes assessed as intrinsic clearance per gram protein; assay type: ADME, Microsome
L929 = experiment: Cytotoxicity against mouse L929 cells; assay type: cell-based
[4] = Antitumor activity against mouse C26 cells xenografted in BALB/c mouse assessed as tumor growth inhibition at 50 mg/kg, po administered once daily and measured every two days by caliper method relative to control; assay type: functional; settings: 48 h, read-out: TGI
[5] = Toxicity in nude BALB/c mouse xenografted with C26 cells assessed as change in body weight at 50 mg/kg, po administered once daily and measured every two days; assay type: organism-based; settings: in vivo
[6] = Toxicity in nude BALB/c mouse xenografted with C26 cells assessed as abnormalities in liver size and morphology at 50 mg/kg, po administered once daily; assay type: organism-based; settings: in vivo
[7] = Toxicity in nude BALB/c mouse xenografted with C26 cells assessed as abnormalities in kidney size and morphology at 50 mg/kg, po administered once daily; assay type: organism-based; settings: in vivo
[8] = Toxicity in nude BALB/c mouse xenografted with C26 cells assessed as abnormalities in lung size and morphology at 50 mg/kg, po administered once daily; assay type: organism-based; settings: in vivo
[9] = Toxicity in nude BALB/c mouse xenografted with C26 cells assessed as abnormalities in heart size and morphology at 50 mg/kg, po administered once daily; assay type: organism-based; settings: in vivo

Row | pIC50 (HCC827) | pIC50 (NCI-H1975) | pIC50 (NCI-H460) | SMILES | other results
1 | < 4.70 | < 4.70 | < 4.70 | C=CCc1ccc(O)c(-c2cc(CC=C)cc(CN3CCC(NC(=O)[C@@H](C)N)CC3)c2O)c1 | 
2 | < 4.70 | < 4.70 | < 4.70 | C=CCc1ccc(O)c(-c2cc(CC=C)cc(CN3CCC(NC(=O)[C@H](N)CC(C)C)CC3)c2O)c1 | 
3 | 4.91 | 4.80 | 4.80 | C=CCc1ccc(O)c(-c2cc(CC=C)cc(CN3CCC(NC(=O)[C@@H](N)c4ccccc4)CC3)c2O)c1 | 
4 | 4.02 | 4.06 | 4.02 | C=CCc1ccc(O)c(-c2cc(CC=C)ccc2O)c1 [MAGNOLOL] | pIC50 (A549): 4.08; pIC50 [1]: 4.03; pIC50 (NCI-H1650): 4.18; pIC50 (NCI-H441): 4.18; half-life [2]: 14.7 min; CLint [3]: 94 mL/min/g
5 | < 4.70 | < 4.70 | < 4.70 | C=CCc1ccc(O)c(-c2cc(CC=C)cc(CN3CCC(NC(=O)[C@H]4CCCN4)CC3)c2O)c1 | 
6 | 5.23 | 5.16 | 5.19 | C=CCc1ccc(O)c(-c2cc(CC=C)cc(CN3CCC(NC(=O)[C@H](N)c4ccccc4)CC3)c2O)c1 | 
7 | < 4.70 | < 4.70 | < 4.70 | C=CCc1ccc(O)c(-c2cc(CC=C)cc(CN3CCC(NC(=O)CCN)CC3)c2O)c1 | 
8 | < 4.70 | < 4.70 | 4.76 | C=CCc1ccc(O)c(-c2cc(CC=C)cc(CN3CCC(NC(=O)[C@H](C)N)CC3)c2O)c1 | 
9 | < 4.70 | < 4.70 | < 4.70 | C=CCc1ccc(O)c(-c2cc(CC=C)cc(CN3CCC(NC(=O)[C@@H](N)CC(C)C)CC3)c2O)c1 | 
10 | 4.81 | < 4.70 | < 4.70 | C=CCc1ccc(O)c(-c2cc(CC=C)cc(Cn3cc(N)cn3)c2O)c1 | 
11 | < 4.70 | < 4.70 | < 4.70 | C=CCc1ccc(O)c(-c2cc(CC=C)cc(CN3CC[C@H](N)C3)c2O)c1 | 
12 | < 4.70 | < 4.70 | < 4.70 | C=CCc1ccc(O)c(-c2cc(CC=C)cc(CCN3CCC(N)CC3)c2O)c1 | 
13 | < 4.70 | < 4.70 | < 4.70 | C=CCc1ccc(O)c(-c2cc(CC=C)cc(CN3CCC[C@@H]3CO)c2O)c1 | 
14 | 5.20 | 5.13 | 5.18 | C=CCc1ccc(O)c(-c2cc(CC=C)cc(CN3CCC(NC(=O)[C@@H](N)CO)CC3)c2O)c1 | 
15 | 5.04 | 4.99 | 5.08 | C=CCc1ccc(O)c(-c2cc(CC=C)cc(CN3CCC(NC(=O)[C@H](N)CO)CC3)c2O)c1 | 
16 | 4.79 | < 4.70 | < 4.70 | C=CCc1ccc(O)c(-c2cc(CC=C)cc(Cn3ccc(N)n3)c2O)c1 | 
17 | < 4.70 | < 4.70 | < 4.70 | C=CCc1ccc(O)c(-c2cc(CC=C)cc(CCCN3CCC(N)CC3)c2O)c1 | 
18 | < 4.70 | < 4.70 | < 4.70 | C=CCc1ccc(O)c(-c2cc(CC=C)cc(CN3CC[C@H](O)C3)c2O)c1 | 
19 | < 4.70 | < 4.70 | < 4.70 | C=CCc1ccc(O)c(-c2cc(CC=C)cc(CN3CCCC3)c2O)c1 | 
20 | < 4.70 | < 4.70 | < 4.70 | C=CCc1ccc(O)c(-c2cc(CC=C)cc(CN3CCC(NC(=O)CCCN)CC3)c2O)c1 | 
21 | < 4.70 | < 4.70 | < 4.70 | C=CCc1ccc(O)c(-c2cc(CC=C)cc(CCCCN3CCC(N)CC3)c2O)c1 | 

Second part, the compound before the results:

Row | SMILES | pIC50 (HCC827) | pIC50 (NCI-H1975) | pIC50 (NCI-H460) | other results
22 | C=CCc1ccc(O)c(-c2cc(CC=C)cc(CN3CCC(NC(=O)[C@@H]4CCCN4)CC3)c2O)c1 | < 4.70 | < 4.70 | < 4.70 | 
23 | C=CCc1ccc(OCCCC)c(-c2cc(CC=C)cc(CN3CCC(N)CC3)c2O)c1 | 5.02 | 4.98 | 5.06 | 
24 | C=CCc1ccc(O)c(-c2cc(CC=C)cc(CN3CCC(NC(=O)[C@H](N)Cc4ccccc4)CC3)c2O)c1 | 5.32 | 5.39 | 5.36 | 
25 | C=CCc1ccc(OC(C)C)c(-c2cc(CC=C)cc(CN3CCC(NC(=O)[C@@H](N)CO)CC3)c2O)c1 | 5.55 | 5.24 | 5.54 | 
26 | C=CCc1ccc(OCCCCCC)c(-c2cc(CC=C)cc(CN3CCC(N)CC3)c2O)c1 | 4.90 | 4.91 | 5.02 | 
27 | C=CCc1ccc(O)c(-c2cc(CC=C)cc(CN3CCC(NC(=O)[C@H](N)CCSC)CC3)c2O)c1 | < 4.70 | < 4.70 | < 4.70 | 
28 | C=CCc1ccc(OC)c(-c2cc(CC=C)cc(CN3CCC(N)CC3)c2O)c1 | 5.46 | 5.39 | 5.37 | 
29 | C=CCc1ccc(OCC)c(-c2cc(CC=C)cc(CN3CCC(NC(=O)[C@@H](N)CO)CC3)c2O)c1 | 5.27 | 5.16 | 5.21 | 
30 | C=CCc1ccc(OCC2CCCO2)c(-c2cc(CC=C)cc(CN3CCC(N)CC3)c2O)c1 (stereo unspecified) | 5.61 | 5.24 | 5.56 | 
31 | C=CCc1ccc(OCC)c(-c2cc(CC=C)cc(CN3CCC(NC(=O)[C@H](N)c4ccccc4)CC3)c2O)c1 | 5.91 | 5.14 | 5.84 | 
32 | C=CCc1ccc(OC2CCCC2)c(-c2cc(CC=C)cc(CN3CCC(N)CC3)c2O)c1 | 5.45 | 5.20 | 5.23 | 
33 | C=CCc1ccc(O)c(-c2cc(CC=C)cc(CN3CCC(NC(=O)[C@@H](N)CCSC)CC3)c2O)c1 | < 4.70 | < 4.70 | < 4.70 | 
34 | C=CCc1ccc(OCC)c(-c2cc(CC=C)cc(CN3CCC(N)CC3)c2O)c1 | 6.03 | 5.84 | 5.90 | pIC50 (A549): 5.52; pIC50 [1]: 5.46; pIC50 (NCI-H1650): 5.38; pIC50 (NCI-H441): 5.53; half-life [2]: 130 min; CLint [3]: 10.7 mL/min/g; pIC50 (L929): 5.75
35 | C=CCc1ccc(OCC)c(-c2cc(CC=C)cc(CN3CCC(N)CC3)c2OCC)c1 | 5.67 | 5.46 | 5.44 | 
36 | C=CCc1ccc(OCCCO)c(-c2cc(CC=C)cc(CN3CCC(N)CC3)c2O)c1 | 5.20 | 5.16 | 5.18 | 
37 | C=CCc1ccc(O)c(-c2cc(CC=C)cc(CN3CCC(NC(=O)[C@@H](N)Cc4ccccc4)CC3)c2O)c1 | 4.96 | 4.95 | 4.90 | 
38 | C#CCOc1ccc(CC=C)cc1-c1cc(CC=C)cc(CN2CCC(N)CC2)c1O | < 4.70 | < 4.70 | < 4.70 | 
39 | C=CCc1ccc(OCCCCO)c(-c2cc(CC=C)cc(CN3CCC(N)CC3)c2O)c1 | 5.13 | 5.13 | 5.06 | 
40 | C=CCc1ccc(OC(C)C)c(-c2cc(CC=C)cc(CN3CCC(NC(=O)[C@H](N)c4ccccc4)CC3)c2O)c1 | 5.81 | 5.38 | 5.76 | 
41 | C=CCc1ccc(OCCCCCOC(C)=O)c(-c2cc(CC=C)cc(CN3CCC(N)CC3)c2OCCCCCOC(C)=O)c1 | < 4.70 | < 4.70 | < 4.70 | 
42 | C=CCCOc1ccc(CC=C)cc1-c1cc(CC=C)cc(CN2CCC(N)CC2)c1O | 5.37 | 4.91 | 5.21 | 
43 | C=CCc1ccc(OCCCCOC(C)=O)c(-c2cc(CC=C)cc(CN3CCC(N)CC3)c2O)c1 | < 4.70 | < 4.70 | < 4.70 | 
44 | C=CCc1ccc(OCCC)c(-c2cc(CC=C)cc(CN3CCC(N)CC3)c2O)c1 | 5.28 | 5.30 | 5.31 | 
45 | C=CCCCCOc1ccc(CC=C)cc1-c1cc(CC=C)cc(CN2CCC(N)CC2)c1O | 5.35 | 4.86 | 5.16 | 
46 | C=CCc1ccc(O)c(-c2cc(CC=C)cc(CN3CCC(NC(=O)CCCCCN)CC3)c2O)c1 | < 4.70 | < 4.70 | < 4.70 | 
47 | C=CCc1ccc(OCCCCCO)c(-c2cc(CC=C)cc(CN3CCC(N)CC3)c2O)c1 | 5.06 | 5.02 | 4.99 | 
48 | C=CCc1ccc(OC(C)C)c(-c2cc(CC=C)cc(CN3CCC(N)CC3)c2OC(C)C)c1 | 5.69 | 5.38 | 5.54 | 
49 | C=CCc1ccc(OC(C)C)c(-c2cc(CC=C)cc(CN3CCC(NC(=O)[C@@H](N)Cc4ccccc4)CC3)c2O)c1 | 6.07 | 5.56 | 5.88 | pIC50 (A549): 5.91; pIC50 [1]: 5.87; pIC50 (NCI-H1650): 5.77; pIC50 (NCI-H441): 5.69; half-life [2]: 21.7 min; CLint [3]: 63.8 mL/min/g; pIC50 (L929): 5.20; inhibition in vivo at 50 mg/kg [4]: 62.4%; Activity [5]: Toxic; Activity [6]: Non-Toxic; Activity [7]: Non-Toxic; Activity [8]: Non-Toxic; Activity [9]: Non-Toxic
50 | C=CCc1ccc(OCCO)c(-c2cc(CC=C)cc(CN3CCC(N)CC3)c2O)c1 | 5.36 | 5.16 | 5.21 | 
